In patent US6482921B1, “Uridyl peptide antibiotic (UPA) derivatives, their synthesis and use” (Essential Therapeutics, Inc., priority 1999, dated 2002):
In brackets after ≈: the same amount, converted by molar mass.

What was measured:
Assay type in all cases: cell-based
[1] = tested on: Pseudomonas aeruginosa PAM 1135; assay: MIC broth microdilution, P. aeruginosa PAM 1135 (high level UPA resistance); settings: P. aeruginosa PAM 1135 UPA1^r
[2] = tested on: Escherichia Coli MC 4100 AcrAB UPA3r; assay: MIC broth microdilution, E. coli MC 4100 AcrAB UPA3r (ΔAcrAB, UPA resistant); settings: E. coli AcrAB UPA3^r
[3] = tested on: Staphylococcus aureus 8325-4; assay: MIC broth microdilution, S. aureus 8325-4 (wild type); settings: S. aureus 8325-4
[4] = tested on: Escherichia Coli MC 4100; assay: MIC broth microdilution, E. coli MC 4100 (wild type); settings: E. coli MC 4100
[5] = tested on: Staphylococcus aureus ATCC 29213; assay: MIC broth microdilution, S. aureus ATCC 29213 (wild type); settings: S. aureus ATCC 29213
[6] = tested on: Pseudomonas aeruginosa PAM 1020; assay: MIC broth microdilution, P. aeruginosa PAM 1020 (wild type); settings: P. aeruginosa PAM 1020
[7] = tested on: Pseudomonas aeruginosa PAM 1154; assay: MIC broth microdilution, P. aeruginosa PAM 1154 (OprM::Hg); settings: P. aeruginosa PAM 1154 OprM::Hg
[8] = tested on: Escherichia Coli MC 4100 AcrAB; assay: MIC broth microdilution, E. coli MC 4100 AcrAB (ΔAcrAB); settings: E. coli AcrAB

| Compound | MIC (μg/ml) Broth microdilution [1] [µg/mL] | MIC (μg/ml) Broth microdilution [2] [µg/mL] | MIC (μg/ml) Broth microdilution [3] [µg/mL] | MIC (μg/ml) Broth microdilution [4] [µg/mL] | MIC (μg/ml) Broth microdilution [5] [µg/mL] | MIC (μg/ml) Broth microdilution [6] [µg/mL] | MIC (μg/ml) Broth microdilution [7] [µg/mL] | MIC (μg/ml) Broth microdilution [8] [µg/mL] |
| --- | --- | --- | --- | --- | --- | --- | --- | --- |
| CC(C)C[C@H](NC(=O)N[C@@H](Cc1c[nH]c2ccccc12)C(=O)O)C(=O)N[C@H](C(=O)NC[C@H]1C[C@@H](O)[C@H](n2ccc(=O)[nH]c2=O)O1)[C@H](C)N(C)C(=O)[C@H](C)N [Compound 170, 1-[5′-[(2S,3S)-N^3-L-Alanyl-N^2-[N-[[(1S)-1-carboxy-2-indol-3-ylethyl)carbamoyl]-L-leucinyl]-N^3-methyl-2,3-diaminobutyramido]-3′,5′-dideoxy-α-L-arabinofuranosyl]uracil] | >512 | 1 (≈ 1.32 µM) | >512 | 128 (≈ 169 µM) | >512 | 64 (≈ 84.7 µM) | 4 (≈ 5.29 µM) | 2 (≈ 2.65 µM) |
| Dihydropacidamycin 1 [Compound 5] | >512 | 32 | >512 | 512 | >512 | 64 | 16 | 8 |
| C[C@H](N)C(=O)N(C)[C@@H](C)[C@H](NC(=O)[C@H](C)NC(=O)N[C@@H](Cc1c[nH]c2ccccc12)C(=O)O)C(=O)NC[C@@H]1C[C@@H](O)[C@@H](n2ccc(=O)[nH]c2=O)O1 [Compound 172, 1-[5′-[(2S,3S)-N^3-L-Alanyl-N^2-[N-[[(1S)-1-carboxy-2-indol-3-ylethyl]carbamoyl]-L-alanyl]-N^3-methyl-2,3-diaminobutyramido]-3′,5′-dideoxy-α-D-ribofuranosyl]uracil] | >512 | 16 (≈ 22.4 µM) | >512 | 16 (≈ 22.4 µM) | 512 (≈ 717 µM) | 64 (≈ 89.7 µM) | 4 (≈ 5.6 µM) | 128 (≈ 179 µM) |
| CC(C(NC(=O)C(Cc1ccccc1)NC(=O)NC(Cc1c[nH]c2ccccc12)C(=O)O)C(=O)NCC1CC(O)C(n2ccc(=O)[nH]c2=O)O1)N(C)C(=O)C(N)CCCCN [Compound 147, 1-[5′-[(2S,3S)-N^2-[N-[[(1S)-1-Carboxy-2-indol-3-ylethyl]carbamoyl]-L-phenylalanyl]-N^3-L-lysinyl-N^3-methyl-2,3-diaminobutyramido]-3′,5′-dideoxy-α-L-arabinofuranosyl]uracil] | >512 | >512 | >512 | >512 | >512 | 32 (≈ 37.8 µM) | 16 (≈ 18.9 µM) | >512 |
